These are literature values, as cited in patent publication US20150018320A1, “Hormone Containing Emulsion Comprising Krill Phospholipids” (B. Braun Melsungen AG, priority 2012, published 2015).

Molecules are shown by their SMILES.

The test system of the data set is TBI patients. Particulars: two clinical trials.

As to `CC(=O)[C@H]1CC[C@H]2[C@@H]3CCC4=CC(=O)CC[C@]4(C)[C@H]3CC[C@]12C` [progesterone, pregn-4-ene-3,20-dione], the mortality result is given as “decreased mortality”; the safety and tolerability entry is “safe and well tolerated”.
